Assay results: patent US20200326330A1, “Device and method for multidimensional cell culture” (Premas Biotech Pvt Ltd, priority 2019, published 2020)

Key:
MCF-7 tissueoids [1] = experiment: Morphology and growth of MCF-7 tissueoids on AXTEX-4D treated with doxorubicin; type: cell-based, human; details: 3 days
MCF-7 cells [2] = experiment: Morphology and growth of MCF-7 cells in 2D monolayer culture treated with doxorubicin; type: cell-based, human; details: MCF-7 2D monolayer, 3 days
MCF-7 tissueoids [3] = experiment: Prestoblue viability of MCF-7 tissueoids (3D) on AXTEX-4D
MCF-7 cells [4] = experiment: Prestoblue viability of MCF-7 2D monolayer culture; type: cell-based; details: Homo sapiens, MCF7, 1 μM doxorubicin, 48 hrs, read-out: viability (prestoblue, normalized with vehicle control as 100%)

**Q.** Which growth of tissueoids (MCF-7 tissueoids [1]; 2.5 μM doxorubicin) does the source give for `COc1cccc2c1C(=O)c1c(O)c3c(c(O)c1C2=O)C[C@@](O)(C(=O)CO)C[C@@H]3O[C@H]1C[C@H](N)[C@H](O)[C@H](C)O1` [doxorubicin, Doxorubicin] here?
**A.** not inhibited

**Q.** What about the growth of tissueoids (MCF-7 tissueoids [1]; 5 μM doxorubicin) of the same compound?
**A.** Partial growth inhibition

**Q.** And the “tissueoid morphology at higher concentration” value (MCF-7 tissueoids [1]; higher concentration (5))?
**A.** shrinking of the tissueoid was visible

**Q.** What about the “morphology (vacuoles) in 2D culture” value (MCF-7 cells [2]; 1 μM doxorubicin) of the same compound?
**A.** Vacuoles were observed

**Q.** What about the “growth inhibition in 2D culture” value (MCF-7 cells [2]; vs DMSO vehicle control) of the same compound?
**A.** Dose-dependent growth inhibition

**Q.** What about the viability at 1 µM (MCF-7 tissueoids [3]; Homo sapiens, MCF7, 48 h, read-out: viability (prestoblue, normalized with vehicle control as 100%)) of the same compound?
**A.** ~80%

**Q.** What about the “resistance of tissueoids compared to vehicle control” value (MCF-7 tissueoids [3]; MCF-7 tissueoids, 1 μM doxorubicin) of the same compound?
**A.** partial resistance

**Q.** What about the viability at 1 µM (MCF-7 cells [4]) of the same compound?
**A.** 35%
